Measurements from the supplement of paper PMC12076712.

Assays:
Test in all cases: pIC50, kinobeads binding competition
BRSK1 = target: T1, BRSK1 (UniProt Q8TDC3)
T1 sequence (whole entry): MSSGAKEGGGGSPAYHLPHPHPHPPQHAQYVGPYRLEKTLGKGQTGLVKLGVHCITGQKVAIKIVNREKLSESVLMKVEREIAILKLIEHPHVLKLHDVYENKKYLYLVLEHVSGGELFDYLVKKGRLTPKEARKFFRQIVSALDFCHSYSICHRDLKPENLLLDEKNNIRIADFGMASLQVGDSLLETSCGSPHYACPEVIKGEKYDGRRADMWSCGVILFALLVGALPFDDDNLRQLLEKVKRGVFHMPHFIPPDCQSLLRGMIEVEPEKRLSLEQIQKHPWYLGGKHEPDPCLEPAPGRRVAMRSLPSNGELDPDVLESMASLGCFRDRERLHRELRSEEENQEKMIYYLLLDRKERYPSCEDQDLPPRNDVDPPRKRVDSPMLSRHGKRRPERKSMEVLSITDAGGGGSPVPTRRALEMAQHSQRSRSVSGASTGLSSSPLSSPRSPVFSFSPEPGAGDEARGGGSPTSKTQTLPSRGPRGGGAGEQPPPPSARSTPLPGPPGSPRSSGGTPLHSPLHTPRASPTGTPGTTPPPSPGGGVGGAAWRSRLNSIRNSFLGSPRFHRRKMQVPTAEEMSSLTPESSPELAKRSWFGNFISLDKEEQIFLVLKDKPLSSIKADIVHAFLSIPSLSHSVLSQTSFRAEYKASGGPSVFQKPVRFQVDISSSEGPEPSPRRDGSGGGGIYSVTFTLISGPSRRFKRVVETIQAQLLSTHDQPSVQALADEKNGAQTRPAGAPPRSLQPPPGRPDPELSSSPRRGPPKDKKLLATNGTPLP
How it was run: (§1)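 Live Jurkat cells were treated with nine compound concentrations (top 30 μM, 1:4 steps) or DMSO for 60 min at 37 °C before lysis. Alternatively, Jurkat lysate or a 1:1:1:1 HEK293/K-562/HepG2/placenta lysate mix was incubated with nine concentrations (top 30 μM, 1:5 steps) for 60 min at 4 °C. Kinobeads-bound proteins were digested and quantified by TMT10 LC-MS/MS. pIC50 came from logistic dose-response fits (R drc package) of fold changes versus DMSO, in biological duplicates.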

MAST1 = MAST1 (UniProt Q9Y2H9); settings: cell material: Jurkat lysate
How it was run: as §1

RIOK1 = target: T2, RIOK1 (UniProt Q9BRS2)
T2 sequence (whole entry): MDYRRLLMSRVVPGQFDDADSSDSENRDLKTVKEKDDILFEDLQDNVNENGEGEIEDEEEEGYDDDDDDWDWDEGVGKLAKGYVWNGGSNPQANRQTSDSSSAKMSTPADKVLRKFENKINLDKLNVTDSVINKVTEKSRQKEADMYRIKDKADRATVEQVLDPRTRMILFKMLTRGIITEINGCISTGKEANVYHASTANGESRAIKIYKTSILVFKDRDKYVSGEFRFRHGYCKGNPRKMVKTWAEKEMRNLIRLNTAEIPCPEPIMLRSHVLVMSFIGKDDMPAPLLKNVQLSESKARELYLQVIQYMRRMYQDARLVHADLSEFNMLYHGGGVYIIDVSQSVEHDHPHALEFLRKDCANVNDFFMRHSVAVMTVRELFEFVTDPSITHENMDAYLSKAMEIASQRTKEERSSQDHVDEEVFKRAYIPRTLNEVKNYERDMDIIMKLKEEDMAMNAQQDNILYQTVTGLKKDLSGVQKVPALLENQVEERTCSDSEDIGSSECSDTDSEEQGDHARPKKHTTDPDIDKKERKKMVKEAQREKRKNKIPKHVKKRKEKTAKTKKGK
How it was run: as §1

RIPK3 = RIPK3 (UniProt Q9Y572)
How it was run: as §1

RNASEL = RNASEL (UniProt Q05823); settings: cell material: Jurkat cells
How it was run: as §1

TLK1 = TLK1 (UniProt Q9UKI8)
How it was run: as §1

UniProt O00506 = target: UniProt O00506
How it was run: as §1

ZAP70 = target: T3, ZAP70 (UniProt P43403)
T3 sequence (whole entry): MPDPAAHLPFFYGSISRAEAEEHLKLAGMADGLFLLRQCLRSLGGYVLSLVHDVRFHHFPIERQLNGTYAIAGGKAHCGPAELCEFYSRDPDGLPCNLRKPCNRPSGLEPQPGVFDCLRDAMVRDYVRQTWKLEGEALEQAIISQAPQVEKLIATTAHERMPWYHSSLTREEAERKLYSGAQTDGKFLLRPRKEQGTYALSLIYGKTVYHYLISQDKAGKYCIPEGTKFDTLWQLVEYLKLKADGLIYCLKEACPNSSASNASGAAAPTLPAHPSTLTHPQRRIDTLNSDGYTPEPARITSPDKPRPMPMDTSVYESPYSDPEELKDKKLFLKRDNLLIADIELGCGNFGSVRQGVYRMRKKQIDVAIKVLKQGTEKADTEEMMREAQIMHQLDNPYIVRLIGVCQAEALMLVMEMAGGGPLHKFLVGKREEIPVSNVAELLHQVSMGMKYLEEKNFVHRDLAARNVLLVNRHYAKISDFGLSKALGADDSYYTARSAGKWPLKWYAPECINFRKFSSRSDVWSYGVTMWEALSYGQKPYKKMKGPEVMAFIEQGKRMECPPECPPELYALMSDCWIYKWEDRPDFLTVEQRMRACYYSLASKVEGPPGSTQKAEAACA
How it was run: as §1

UniProt Q6XUX3 = settings: cell material: Lysate mix
How it was run: as §1

LZK = LZK (UniProt O43283); settings: cell material: Lysate mix
How it was run: as §1

RIPK3, sequence (Q9Y572 whole entry, looked up): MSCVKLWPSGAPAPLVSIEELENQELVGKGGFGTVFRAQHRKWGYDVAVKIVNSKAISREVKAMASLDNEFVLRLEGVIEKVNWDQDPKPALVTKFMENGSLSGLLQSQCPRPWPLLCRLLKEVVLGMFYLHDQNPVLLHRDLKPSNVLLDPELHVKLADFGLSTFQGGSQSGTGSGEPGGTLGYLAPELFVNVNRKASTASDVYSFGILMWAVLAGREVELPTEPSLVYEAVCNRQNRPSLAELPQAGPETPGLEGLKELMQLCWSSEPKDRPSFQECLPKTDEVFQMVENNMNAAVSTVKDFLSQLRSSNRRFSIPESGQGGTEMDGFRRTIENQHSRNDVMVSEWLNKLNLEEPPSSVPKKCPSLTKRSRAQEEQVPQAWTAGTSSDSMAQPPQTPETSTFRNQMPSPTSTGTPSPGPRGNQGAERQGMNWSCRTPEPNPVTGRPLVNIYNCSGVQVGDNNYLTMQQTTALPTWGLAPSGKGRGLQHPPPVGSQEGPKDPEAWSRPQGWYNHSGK
UniProt Q6XUX3, sequence (Q6XUX3 whole entry): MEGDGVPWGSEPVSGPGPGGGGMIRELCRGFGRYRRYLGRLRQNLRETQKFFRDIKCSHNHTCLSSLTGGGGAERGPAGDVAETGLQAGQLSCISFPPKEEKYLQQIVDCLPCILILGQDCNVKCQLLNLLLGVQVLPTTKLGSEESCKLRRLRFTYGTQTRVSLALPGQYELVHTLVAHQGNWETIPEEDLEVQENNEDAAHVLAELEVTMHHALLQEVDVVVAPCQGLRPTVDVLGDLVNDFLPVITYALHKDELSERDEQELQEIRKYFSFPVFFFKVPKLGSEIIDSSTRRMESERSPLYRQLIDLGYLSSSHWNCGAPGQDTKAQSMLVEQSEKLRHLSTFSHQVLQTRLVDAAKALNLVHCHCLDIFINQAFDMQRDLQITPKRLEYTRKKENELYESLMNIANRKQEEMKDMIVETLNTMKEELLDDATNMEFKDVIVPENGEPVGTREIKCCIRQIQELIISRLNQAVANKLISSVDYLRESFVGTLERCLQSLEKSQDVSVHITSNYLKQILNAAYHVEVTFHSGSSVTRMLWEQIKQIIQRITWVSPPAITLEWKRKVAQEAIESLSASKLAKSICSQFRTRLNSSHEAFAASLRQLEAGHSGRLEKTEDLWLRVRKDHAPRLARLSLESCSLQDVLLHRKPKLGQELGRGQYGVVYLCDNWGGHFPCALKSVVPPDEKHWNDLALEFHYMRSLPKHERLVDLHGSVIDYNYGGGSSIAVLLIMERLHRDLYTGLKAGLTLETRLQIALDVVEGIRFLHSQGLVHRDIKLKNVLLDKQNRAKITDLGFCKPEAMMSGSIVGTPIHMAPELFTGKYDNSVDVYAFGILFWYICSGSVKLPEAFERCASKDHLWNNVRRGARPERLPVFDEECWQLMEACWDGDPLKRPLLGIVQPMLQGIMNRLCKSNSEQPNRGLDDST
UniProt O00506, sequence (O00506 whole entry, looked up): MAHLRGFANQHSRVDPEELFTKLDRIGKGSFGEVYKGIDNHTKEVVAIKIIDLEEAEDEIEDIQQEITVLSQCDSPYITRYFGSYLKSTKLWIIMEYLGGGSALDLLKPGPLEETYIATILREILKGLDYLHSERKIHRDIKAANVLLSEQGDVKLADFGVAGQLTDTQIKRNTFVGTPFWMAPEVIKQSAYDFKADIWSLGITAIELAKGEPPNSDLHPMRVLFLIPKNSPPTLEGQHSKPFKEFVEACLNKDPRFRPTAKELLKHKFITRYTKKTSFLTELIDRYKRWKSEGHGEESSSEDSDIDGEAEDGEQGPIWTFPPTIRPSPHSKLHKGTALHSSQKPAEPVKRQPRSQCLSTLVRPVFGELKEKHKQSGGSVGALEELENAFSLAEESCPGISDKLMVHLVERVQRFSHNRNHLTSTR
MAST1, sequence (Q9Y2H9 whole entry, looked up): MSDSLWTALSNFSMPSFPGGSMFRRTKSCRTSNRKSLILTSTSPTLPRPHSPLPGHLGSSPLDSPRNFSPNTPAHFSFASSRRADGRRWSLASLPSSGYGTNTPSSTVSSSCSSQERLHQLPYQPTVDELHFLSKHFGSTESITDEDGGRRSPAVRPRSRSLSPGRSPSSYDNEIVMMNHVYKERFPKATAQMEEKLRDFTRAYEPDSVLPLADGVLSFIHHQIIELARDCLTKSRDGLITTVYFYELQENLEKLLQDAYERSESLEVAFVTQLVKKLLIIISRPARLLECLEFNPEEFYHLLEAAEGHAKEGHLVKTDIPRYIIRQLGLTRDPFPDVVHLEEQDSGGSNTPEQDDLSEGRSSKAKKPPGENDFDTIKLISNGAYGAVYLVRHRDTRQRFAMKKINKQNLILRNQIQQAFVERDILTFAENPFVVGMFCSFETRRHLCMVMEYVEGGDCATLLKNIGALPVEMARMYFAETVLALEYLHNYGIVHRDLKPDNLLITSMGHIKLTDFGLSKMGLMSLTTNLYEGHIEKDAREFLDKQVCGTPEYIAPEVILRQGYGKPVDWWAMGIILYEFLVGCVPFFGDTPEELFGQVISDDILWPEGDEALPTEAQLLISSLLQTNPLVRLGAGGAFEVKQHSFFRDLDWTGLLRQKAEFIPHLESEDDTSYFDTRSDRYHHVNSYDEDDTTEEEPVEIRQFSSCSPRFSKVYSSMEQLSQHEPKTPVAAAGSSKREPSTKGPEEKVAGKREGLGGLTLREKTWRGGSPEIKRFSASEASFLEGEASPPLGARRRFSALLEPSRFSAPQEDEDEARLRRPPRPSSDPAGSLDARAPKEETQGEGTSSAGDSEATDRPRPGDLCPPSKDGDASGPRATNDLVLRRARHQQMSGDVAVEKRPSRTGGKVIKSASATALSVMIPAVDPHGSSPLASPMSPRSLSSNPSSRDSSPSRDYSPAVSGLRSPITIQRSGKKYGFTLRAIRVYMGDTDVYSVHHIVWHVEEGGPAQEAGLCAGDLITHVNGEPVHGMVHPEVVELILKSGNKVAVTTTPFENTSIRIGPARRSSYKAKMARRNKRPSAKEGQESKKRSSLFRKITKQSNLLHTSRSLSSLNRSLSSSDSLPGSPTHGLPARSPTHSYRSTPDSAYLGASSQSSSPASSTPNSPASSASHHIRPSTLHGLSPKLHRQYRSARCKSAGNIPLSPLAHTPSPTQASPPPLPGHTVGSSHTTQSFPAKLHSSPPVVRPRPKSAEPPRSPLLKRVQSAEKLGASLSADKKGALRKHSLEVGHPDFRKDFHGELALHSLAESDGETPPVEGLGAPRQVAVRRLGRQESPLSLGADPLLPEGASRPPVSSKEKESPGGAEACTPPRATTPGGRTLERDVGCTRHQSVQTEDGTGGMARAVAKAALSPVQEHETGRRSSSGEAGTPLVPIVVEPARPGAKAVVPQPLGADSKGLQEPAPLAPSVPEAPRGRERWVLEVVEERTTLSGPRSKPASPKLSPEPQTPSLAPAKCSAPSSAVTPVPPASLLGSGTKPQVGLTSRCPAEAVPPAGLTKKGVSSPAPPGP
LZK, sequence (O43283 whole entry): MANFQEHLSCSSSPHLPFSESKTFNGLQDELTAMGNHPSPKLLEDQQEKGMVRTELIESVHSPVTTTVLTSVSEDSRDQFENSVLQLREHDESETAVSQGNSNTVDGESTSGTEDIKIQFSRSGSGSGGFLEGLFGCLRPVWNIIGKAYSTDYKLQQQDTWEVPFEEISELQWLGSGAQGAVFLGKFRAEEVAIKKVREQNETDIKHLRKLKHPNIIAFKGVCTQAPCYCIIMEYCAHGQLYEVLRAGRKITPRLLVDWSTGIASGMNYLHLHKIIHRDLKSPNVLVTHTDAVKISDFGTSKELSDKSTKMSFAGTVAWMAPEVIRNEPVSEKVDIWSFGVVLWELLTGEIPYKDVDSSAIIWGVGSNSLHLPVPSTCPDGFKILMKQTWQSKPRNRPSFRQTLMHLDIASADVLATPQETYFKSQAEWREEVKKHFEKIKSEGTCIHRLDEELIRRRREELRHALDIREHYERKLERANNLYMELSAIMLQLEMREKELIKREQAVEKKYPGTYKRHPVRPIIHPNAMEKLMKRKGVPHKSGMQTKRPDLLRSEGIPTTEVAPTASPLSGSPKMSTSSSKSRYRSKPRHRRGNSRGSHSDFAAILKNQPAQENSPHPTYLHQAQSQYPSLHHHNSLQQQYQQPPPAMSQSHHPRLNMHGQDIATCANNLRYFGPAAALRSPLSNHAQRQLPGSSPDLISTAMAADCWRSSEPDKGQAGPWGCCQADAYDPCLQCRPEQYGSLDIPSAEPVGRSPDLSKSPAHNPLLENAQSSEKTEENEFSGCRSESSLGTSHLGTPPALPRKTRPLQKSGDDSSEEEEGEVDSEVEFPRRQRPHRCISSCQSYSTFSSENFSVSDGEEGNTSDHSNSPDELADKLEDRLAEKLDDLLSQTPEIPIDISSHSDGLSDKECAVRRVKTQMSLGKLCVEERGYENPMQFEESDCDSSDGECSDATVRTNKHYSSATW

Compound | pIC50 (BRSK1; cell material: Jurkat cells) | pIC50 (BRSK1; cell material: Jurkat lysate) | pIC50 (MAST1) | pIC50 (RIOK1; cell material: Jurkat cells) | pIC50 (RIOK1; cell material: Jurkat lysate) | pIC50 (RIPK3; cell material: Jurkat lysate) | pIC50 (RNASEL) | pIC50 (ZAP70; cell material: Jurkat cells) | pIC50 (ZAP70; cell material: Jurkat lysate) | pIC50 (UniProt Q6XUX3) | pIC50 (LZK) | other results
C#CCNC(=O)c1cc(Nc2cc(C3CC3)[nH]n2)nc(N2CCN(Cc3ccc(S(=O)(=O)F)cc3)CC2)n1 | 6.05 | < 4.52 | 5.92 | < 4.52 | < 4.52 | 4.67 | < 4.52 | 6.43 | < 4.52 | – | – | pIC50 (RIPK3; cell material: Jurkat cells): 4.85; pIC50 (TLK1; cell material: Jurkat cells): 4.82; pIC50 (UniProt O00506; cell material: Jurkat lysate): 6.59
C#CCNC(=O)c1cc(Nc2cc(C)[nH]n2)nc(N2CCN(Cc3ccc(S(=O)(=O)F)cc3)CC2)n1 | – | – | – | – | – | – | – | – | – | 5 | – | –
Cc1cc(Nc2cc(C(=O)NCCNC(=O)OC3CC/C=C/CCC3)nc(N3CCN(Cc4ccc(S(=O)(=O)F)cc4)CC3)n2)n[nH]1 (configuration not stated) | – | – | – | – | – | – | – | – | – | – | < 4.52 | –
O=C(NCCNC(=O)c1cc(Nc2cc(C3CC3)[nH]n2)nc(N2CCN(Cc3ccc(S(=O)(=O)F)cc3)CC2)n1)OC1CC/C=C/CCC1 (configuration not stated) | 6.6 | < 4.52 | 4.57 | < 4.52 | < 4.52 | < 4.52 | < 4.52 | 6.09 | < 4.52 | 5.77 | – | pIC50 (UniProt O00506; cell material: Lysate mix): < 4.52
CCNC(=O)c1cc(Nc2cc(C)[nH]n2)nc(N2CCN(Cc3ccc(S(=O)(=O)F)cc3)CC2)n1 | – | – | – | – | – | – | – | – | – | – | – | pIC50 (TLK1; cell material: Lysate mix): 4.92
CCNC(=O)c1cc(Nc2cc(C3CC3)[nH]n2)nc(N2CCN(Cc3ccc(S(=O)(=O)F)cc3)CC2)n1 | – | – | – | – | – | – | – | – | – | – | 5.12 | –
